Biological target: T1, Prostaglandin G/H synthase 2 (Ovis aries, UniProt P79208)
T1 sequence (P79208 whole entry): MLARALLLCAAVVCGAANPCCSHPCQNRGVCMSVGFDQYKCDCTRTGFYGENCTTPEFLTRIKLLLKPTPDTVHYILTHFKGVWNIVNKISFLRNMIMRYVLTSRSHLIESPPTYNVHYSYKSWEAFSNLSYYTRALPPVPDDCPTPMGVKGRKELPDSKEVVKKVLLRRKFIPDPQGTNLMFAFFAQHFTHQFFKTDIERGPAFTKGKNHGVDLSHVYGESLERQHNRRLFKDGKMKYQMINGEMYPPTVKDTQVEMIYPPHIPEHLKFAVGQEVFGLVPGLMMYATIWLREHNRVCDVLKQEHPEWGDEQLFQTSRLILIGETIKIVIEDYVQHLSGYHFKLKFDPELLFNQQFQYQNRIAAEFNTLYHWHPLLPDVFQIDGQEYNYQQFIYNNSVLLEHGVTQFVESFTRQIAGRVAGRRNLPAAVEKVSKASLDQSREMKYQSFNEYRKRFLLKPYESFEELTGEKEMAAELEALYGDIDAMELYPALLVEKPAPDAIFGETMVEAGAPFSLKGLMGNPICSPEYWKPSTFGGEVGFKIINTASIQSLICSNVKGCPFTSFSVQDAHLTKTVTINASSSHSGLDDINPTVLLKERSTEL
Assay: Inhibitory activity against Prostaglandin G/H synthase 2 from sheep placental cotyledons

SMILES | IC50 [µM]
C=C[C@@]1(C)CC=C2C(CCC3[C@](C)(CO)CCC[C@@]23C)C1 (stereo not given in full) [ACANTHOL] | > 1000
CC(=O)OCC[C@@]1(C)CC=C2C(CCC3[C@](C)(C(=O)O)CCC[C@@]23C)C1 (stereo not given in full) | > 1000
C[C@@]1(C2CO2)CC2CCC3[C@](C)(C(=O)O)CCC[C@@]3(C)[C@@]23O[C@H]3C1 (stereo not given in full) | > 1000
COCC[C@@]1(C)CC=C2C(CCC3[C@](C)(C(=O)O)CCC[C@@]23C)C1 (stereo not given in full) | > 1000
C=C[C@@]1(C)CC=C2C(CCC3[C@](C)(C(N)=O)CCC[C@@]23C)C1 (stereo not given in full) | > 1000
C=C[C@@]1(C)CC=C2C(CCC3[C@](C)(C(=O)OC)CCC[C@@]23C)C1 (stereo not given in full) | > 1000
C[C@]1(CCO)CC=C2C(CCC3[C@](C)(C(=O)O)CCC[C@@]23C)C1 (stereo not given in full) | > 1000

Now from value to molecule:

IC50 [µM] | SMILES
> 1000 | C[C@]1(CCF)CC=C2C(CCC3[C@](C)(C(=O)O)CCC[C@@]23C)C1 (stereo not given in full)
194 | C[C@]1(CCF)CC=C2C(CCC3[C@](C)(C(=O)F)CCC[C@@]23C)C1 (stereo not given in full)
819 | C=C[C@@]1(C)CC=C2C(CCC3[C@](C)(C(=O)NO)CCC[C@@]23C)C1 (stereo not given in full)
425 | CC[C@@]1(C)CC=C2C(CCC3[C@](C)(C(=O)O)CCC[C@@]23C)C1 (stereo not given in full)
13.2 | C=C[C@@]1(C)CC=C2C(CCC3[C@](C)(CCC/C=C/C(=O)O)CCC[C@@]23C)C1 (stereo not given in full)
82.3 | C=C[C@@]1(C)CC=C2C(CCC3[C@](C)(CC(=O)O)CCC[C@@]23C)C1 (stereo not given in full)
105 | C=C[C@@]1(C)CC=C2C(CCC3[C@](C)(CCC(=O)O)CCC[C@@]23C)C1 (stereo not given in full)
796 | C[C@]1(CC(F)F)CC=C2C(CCC3[C@](C)(C(=O)O)CCC[C@@]23C)C1 (stereo not given in full)

Reference: ChEMBL document CHEMBL1134200, “Pimarane cyclooxygenase 2 (COX-2) inhibitor and its structure-activity relationship” (Bioorg Med Chem Lett, 2001)
